Tested on: human skin fibroblasts
Test: Collagen synthesis by human skin fibroblasts (3H-proline incorporation into collagenous protein)
Format: cell-based
Details: carnosine alone 60 mM, 48 h (FIG. 1 column 11)
Procedure: After starving for up to 6 hours, cells were exposed to a mixture of BMF and carnosine or the appropriate controls for 48 hours. Tritiated proline (L-[5-^3H] proline) was included in the culture medium and at the end of the experiments, the amount of ^3H proline incorporated into collagenous protein was determined as an index of collagen synthesis. A subset of cultures were treated with […] for the final 6-8 hours of the culture to determine the collagen-specific nature of incorporated radioactivity.
Human diploid ftbroblasts were obtained from neonatal foreskins collected from the Womens' and Chldrens' Hospital (North Adelaide, Australia). […]
Collagen was purified from the culture medium by successive precipitation with salt solutions at acid and neutral pH. […] The amount of radioactivity in the samples was determined using a Stcinillation counter (Wailac) as an index of the amount of new collagen synthesised. The radioactivity in each replicate well was normalised as a percentage of the average radioactivity present in the control wells from each experiment. […]

NCCC(=O)N[C@@H](Cc1c[nH]cn1)C(=O)O [Carnosine, beta-alanyl-L-histidine]
collagen synthesis: did not stimulate collagen synthesis

From US20070275084A1, “Compositions And Methods For The Treatment Of Skin Damage” (priority 2003, published 2007)
